Results as given in patent publication US8962648B2, “Tricyclic compounds and PBK inhibitors containing the same” (OncoTherapy Science, Inc., priority 2010, dated 2015).
Where a name gives a salt, the structure may show the parent alone. Read-outs that look alike come from different tables or passages of the source.

Tests used:
HT-1197 cells = assay: Cell-based assay, cellular growth (Cell Counting Kit-8, 72 hours), PBK-negative control cells; conditions: Homo sapiens, HT1197, 72 h
Experimental: (§1) 100 micro-L of cell suspension was seeded onto 96-well microtiter plate (ViewPlate-96FTC, PerkinElmer). […] Cellular growth was determined using Cell Counting Kit-8 (DOJINDO) at 72 hours after the exposure of the candidate inhibitors. […] Accurate IC50 values were calculated as described previously.

A549 cells = assay: Cell-based assay, cellular growth (Cell Counting Kit-8, 72 hours); conditions: Homo sapiens, A549, 72 h
How it was run: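 Seed cells in 96-well format; add inhibitors; measure growth by CCK-8 at end of exposure; derive IC50.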

BT-549 cells = assay: as above; conditions: Homo sapiens, BT549 cells
Experimental: as §1

T47D cells = assay: as above; conditions: Homo sapiens, T47D, 72 h
Experimental: as §1

PBK = PBK (Homo sapiens (Human), UniProt Q96KB5); assay: Kinase assay (IMAP fluorescence polarization, FITC-labeled histone H3 peptide); format: biochemical
How it was run: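 PBK at 0.8 ng/µL with 100 nM FITC-histone H3 peptide and 50 µM ATP in HEPES pH 7.4, 0.3 mM MgCl2, 2 mM DTT, reacted 1 h at room temperature. Phosphorylation read by IMAP fluorescence polarization; IC50 from four-parameter fit.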

22Rv1 cells = assay: Cell-based assay, cellular growth (Cell Counting Kit-8, 72 hours); conditions: Homo sapiens
[1] = PBK 0.8 ng/micro-L, 50 micro-M ATP, 100 nM FITC-labeled histone H3 peptide, room temperature 1 hour

Chain of PBK (Q96KB5 whole entry): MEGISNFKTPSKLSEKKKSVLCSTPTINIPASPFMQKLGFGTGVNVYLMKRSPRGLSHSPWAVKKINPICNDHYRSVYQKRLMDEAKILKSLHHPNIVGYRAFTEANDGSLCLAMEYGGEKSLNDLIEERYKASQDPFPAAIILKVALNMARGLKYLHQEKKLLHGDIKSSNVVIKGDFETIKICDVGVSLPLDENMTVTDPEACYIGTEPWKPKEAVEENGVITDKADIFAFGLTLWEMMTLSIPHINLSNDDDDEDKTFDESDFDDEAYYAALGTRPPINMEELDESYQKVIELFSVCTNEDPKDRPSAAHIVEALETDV

SMILES	IC50 (A549 cells) [nM]	IC50 (BT-549 cells) [nM]	IC50 (T47D cells) [nM]	IC50 (PBK; [1]) [nM]	IC50 (22Rv1 cells) [nM]	IC50 (PBK; PBK 0.8 ng/micro-L, 50 micro-M ATP, 100 nM FITC-labeled histone H3 peptide, room temperature 1 hour, hydrochloride) [nM]	IC50 (HT-1197 cells) [nM]	IC50 (PBK) [nM]
C[C@@H](CN)c1ccc(-c2c(O)ccc3[nH]c(=O)c4sccc4c23)cc1 [Compound 1160, (R)-9-(4-(1-aminopropan-2-yl)phenyl)-8-hydroxythieno[2,3-c]quinolin-4(5H)-one hydrochloride]	56	54	57	0.64	69		230	
COc1cc(C)c2[nH]c(=O)c3sccc3c2c1-c1ccc([C@@H](C)CN)c(F)c1 [Compound 1317, (R)-9-(4-(1-aminopropan-2-yl)-3-fluorophenyl)-8-methoxy-6-methylthieno[2,3-c]quinolin-4(5H)-one hydrochloride]	42	36	72				100	22
C[C@@H](CN(C)C)c1ccc(-c2c(O)cc(Cl)c3[nH]c(=O)c4sccc4c23)cc1 [Compound 1347, (R)-6-chloro-9-(4-(1-(dimethylamino)propan-2-yl)phenyl)-8-hydroxythieno [2,3-c]quinolin-4(5H)-one hydrochloride]	100	110	260	43			260	
CNCCc1ccc(-c2c(O)cc(C)c3[nH]c(=O)c4sccc4c23)cc1 [Compound 1364, 8-hydroxy-6-methyl-9-(4-(2-(methylamino)ethyl)phenyl)thieno[2,3-c]quinolin-4(5H)-one hydrochloride]	270	260	300	55			660	

Now from value to compound, other results behind:

IC50 (A549 cells) [nM]	IC50 (BT-549 cells) [nM]	IC50 (T47D cells) [nM]	IC50 (PBK; [1]) [nM]	IC50 (22Rv1 cells) [nM]	IC50 (PBK; PBK 0.8 ng/micro-L, 50 micro-M ATP, 100 nM FITC-labeled histone H3 peptide, room temperature 1 hour, hydrochloride) [nM]	SMILES	IC50 (HT-1197 cells) [nM]	IC50 (PBK) [nM]
23	13	24		22		Cc1cc(O)c(-c2ccc([C@@H](C)CN)cc2)c2c1[nH]c(=O)c1sccc12 [Compound 1169, (R)-9-(4-(1-aminopropan-2-yl)phenyl)-8-hydroxy-6-methylthieno[2,3-c]quinolin-4(5H)-one hydrobromide]		
15	8.4	15			3.6	Cc1cc(O)c(-c2ccc([C@@H](C)CN)c(F)c2)c2c1[nH]c(=O)c1sccc12 [Compound 1318, (R)-9-(4-(1-aminopropan-2-yl)-3-fluorophenyl)-8-hydroxy-6-methylthieno[2,3-c]quinolin-4(5H)-one hydrochloride]	63	
55	71	99	40			CC[C@@H](CN)c1ccc(-c2c(O)cc(C)c3[nH]c(=O)c4sccc4c23)cc1 [Compound 1352, (R)-9-(4-(1-aminobutan-2-yl)phenyl)-8-hydroxy-6-methylthieno[2,3-c]quinolin-4(5H)-one hydrochloride]	340	
